Patent US20100255580A1, “Differentiation of Human Embryonic Stem Cells” (LIFESCCAN, INC., priority 2007, published 2010)
Where “and” joins values, the source holds several entries; their conditions need not be identical. Equal values may be shown once.

Tested on: human embryonic stem cell line H9
Assay: Cytokine array analysis of cell lysates and conditioned media
Type: cell-based
Parameters: key to BMP-4 expression / BMP-6 expression / EGF expression / FGF-6 expression / Fractalkine expression / GCP-2 expression / IL-3 expression / IL-4 expression / IL-6 expression / M-CSF expression / MIG expression / Amphiregulin expression: cytokine array signal, normalized and background-subtracted
Experimental: The effect that Wnt-3a treatment has on cytokine expression was analyzed using a protein array. Cells of the human embryonic stem cell line H9 were cultured according to the methods described in Example 15. At passage 54, cells were differentiated in the presence of 100 ng/ml ActivinA+/−10 ng/ml Wnt3a for 2 days in 0.5% FBS DMEM/F12. Cells were subsequently cultured for an additional three days in 100 ng/mlActivin A and 2% FBS DMEM/F12. At the end of the 5th day, CXCR4 expression was determined by FACS for each treatment group.
Cell lysates were prepared from cells of each treatment group, with a mammalian cell lysis kit (Sigma-Aldrich, MO). Conditioned media from each treatment group was collected and concentrated. Cytokine array analysis was completed using Cytokine Array panels provided by RayBiotech, GA (http://www.raybiotech.com/). Table VII lists cytokine, growth factor, and receptor expression following normalization of the data and background subtraction. For each panel, positive and negative controls are also included. Th data shown are two independent samples per cell treatment group (1,2).

## Activin A: a member of the TGFβ superfamily; R&D Systems; Group 2 = Activin A (100 ng/ml)
Cell conditioned media
  1L-1beta expression: 117.99 and 75.93
  1L-1ra expression: 142.34 and 93.74
  Acrp30 expression: 1,797.52 and 1,319.88
  AgRP expression: 378.17 and 195.90
  Amphiregulin expression: 250.52 and 151.01
  Angiogenin expression: 13,726.35 and 11,749.55
  Angiopoietin-2 expression: 655.82 and 632.60
  AxI expression: 401.31 and 324.05
  BDNF expression: 689.22 and 563.39
  BMP-4 expression: 583.40 and 541.83
  BMP-6 expression: 354.91 and 355.28
  CK beta 8-1 expression: 17.79 and 25.31
  CNTF expression: 282.81 and 211.86
  EGF expression: 1,681.85 and 1,406.12
  Eotaxin expression: 207.89 and 199.67
  Eotaxin-2 expression: 890.56 and 744.31
  Eotaxin-3 expression: 975.77 and 665.56
  FGF-7 expression: 449.49 and 352.47
  Flt-3 Ligand expression: 315.58 and 277.47
  Fractalkine expression: 120.80 and 145.30
  GCP-2 expression: 203.21 and 166.86
  GDNF expression: 176.99 and 194.98
  GM-CSF expression: 777.25 and 722.75
  IFN-gamma expression: 283.74 and 559.64
  IGF-I expression: 88.96 and 148.11
  IGFBP-1 expression: 33.71 and 24.37
  IGFBP-2 expression: 27,656.85 and 28,473.95
  IGFBP-4 expression: 10,091.09 and 6,029.45
  IL-1alpha expression: 10,155.70 and 5,842.90
  IL-2 expression: 188.22 and 363.72
  IL-3 expression: 4,598.86 and 5,260.77
  IL-4 expression: 357.72 and 239.04
  IL-6 expression: 7,377.28 and 9,527.88
  IL-7 expression: 456.98 and 430.27
  IL-10 expression: 722.93 and 564.32
  IL-16 expression: 259.39 and 214.67
  LIGHT expression: 619.92 and 453.71
  Leptin expression: 2,999.42 and 2,016.38
  M-CSF expression: 529.09 and 269.04
  MCP-1 expression: 572.17 and 500.58
  MCP-4 expression: 123.61 and 61.87
  MIG expression: 272.50 and 486.52
  NAP-2 expression: 97.39 and 110.61
  NT-3 expression: 97.39 and 171.55
  PDGF-BB expression: 4,729.96 and 8,521.09
  RANTES expression: 393.31 and 347.78
  SCF expression: 691.09 and 487.46
  TGF-beta 1 expression: 752.90 and 740.56
  TGF-beta 3 expression: 111.44 and 115.30
  TNF-beta expression: 675.17 and 671.19
  bFGF expression: 7,948.03 and 4,993.83
Cell lysate
  1L-1beta expression: 1.00 and 1.13
  1L-1ra expression: 33.00 and 25.91
  Amphiregulin expression: 17.50 and 15.44
  AxI expression: 637.50 and 795.83
  BDNF expression: 167.50 and 167.82
  BMP-4 expression: 247.00 and 273.70
  CK beta 8-1 expression: 1.00 and 1.13
  Eotaxin-2 expression: 262.00 and 336.77
  Eotaxin-3 expression: 184.50 and 284.96
  FGF-6 expression: 629.00 and 379.57
  GM-CSF expression: 433.00 and 636.37
  I-309 expression: 152.50 and 246.10
  IFN-gamma expression: 349.00 and 441.52
  IGFBP-2 expression: 3,785.50 and 5,554.45
  IGFBP-4 expression: 5,553.00 and 6,043.27
  IL-1alpha expression: 1,236.00 and 1,216.99
  IL-5 expression: 400.50 and 555.84
  IL-6 expression: 828.50 and 516.98
  IL-7 expression: 190.00 and 313.12
  IL-13 expression: 428.50 and 555.84
  IL-15 expression: 599.50 and 808.13
  Leptin expression: 900.50 and 617.79
  MCP-1 expression: 242.50 and 282.71
  MIG expression: 291.00 and 226.39
  MIP-1-delta expression: 1.50 and 1.13
  NT-3 expression: 1.00 and 1.13
  SCF expression: 74.50 and 148.67
  TGF-beta 1 expression: 362.00 and 230.33
  TNF-alpha expression: 431.00 and 579.49
  TNF-beta expression: 241.00 and 342.40
  bFGF expression: 59,820.50 and 54,057.29
